Where two headings read alike, the source gives them in different places.
Experiments:
Type in all cases: cell-based
[1] = test system: Proteus mirabilis (PMI) isolates; test: microbe, parasite or virus in culture; settings: AF1 @ 4 μg/mL
Procedure, shortened: (§1)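 Compound MIC, and antibacterial MIC at each fixed compound level, taken by visual inspection as lowest concentration stopping growth. Inoculum: log-phase bacteria, final 5·10^5 CFU/mL, cation-adjusted Mueller-Hinton broth; 16-20 h, 35° C, ambient air.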

[2] = test system: Enterobacter cloacae (ECL) isolates; test: MIC of compounds alone and combined with antibacterials, broth microdilution (CLSI)
Procedure, shortened: as §1

[3] = test system: Escherichia coli (ECO) isolates; test: as above; settings: AF1 @ 4 μg/mL
Procedure, shortened: as §1

[4] = test system: Enterobacter aerogenes (EAE) isolates; test: as above; settings: for MIC ATB in combination: AF1 @ 4 μg/mL; for MIC: Klebsiella aerogenes, ATB alone, read-out: MIC
Procedure, shortened: as §1

SMILES: C=CC1=C(C(=O)O)N2C(=O)[C@@H](NC(=O)/C(=N\O)c3csc(N)n3)[C@H]2SC1 [CDR, Cefdinir]
- MIC ATB in combination ([1]; PMI UFR82): 0.5 µg/mL
- MIC ATB in combination ([1]; PMI UFR120): <=0.25 μg/mL
- MIC ATB in combination ([1]; PMI UFR121): <=0.25 μg/mL
- MIC ATB in combination ([1]; PMI UFR122): <=0.25 μg/mL
- MIC ATB in combination ([1]; PMI UFR123): <=0.25 μg/mL
- MIC ATB in combination ([1]; PMI UFR124): <=0.25 μg/mL
- MIC ATB in combination ([1]; PMI UFR125): <=0.25 μg/mL
- MIC ATB in combination ([1]; PMI UFR126): <=0.25 μg/mL
- MIC ATB in combination ([1]; PMI UFR127): <=0.25 μg/mL
- MIC ATB in combination ([1]; PMI UFR129): <=0.25 μg/mL
- MIC ATB in combination ([1]; PMI UFR130): <=0.25 μg/mL
- MIC ATB in combination ([1]; PMI UFR237): <=0.25 μg/mL
- MIC ATB in combination ([2]; ECL 190310, AF1 @ 4 μg/mL): 64 µg/mL
- MIC ATB in combination ([2]; ECL 190408, AF1 @ 4 μg/mL): <=0.25 μg/mL
- MIC ATB in combination ([2]; ECL 200138, AF1 @ 4 μg/mL): 64 µg/mL
- MIC ATB in combination ([2]; ECL 200322, AF1 @ 4 μg/mL): 4 µg/mL
- MIC ATB in combination ([2]; ECL 260253, AF1 @ 4 μg/mL): 32 µg/mL
- MIC ATB in combination ([2]; ECL 260323, AF1 @ 4 μg/mL): 64 µg/mL
- MIC ATB in combination ([2]; ECL 260508, AF1 @ 4 μg/mL): 2 µg/mL
- MIC ATB in combination ([2]; ECL NEM146383, AF1 @ 4 μg/mL): 32 µg/mL
- MIC ATB in combination ([2]; ECL P99, AF1 @ 4 μg/mL): 16 µg/mL
- MIC ATB in combination ([2]; ECL UFR12, AF1 @ 4 μg/mL): 4 µg/mL
- MIC ATB in combination ([2]; ECL UFR13, AF1 @ 4 μg/mL): 16 µg/mL
- MIC ATB in combination ([2]; ECL UFR14, AF1 @ 4 μg/mL): 32 µg/mL
- MIC ATB in combination ([2]; ECL UFR60, AF1 @ 4 μg/mL): 8 µg/mL
- MIC ATB in combination ([2]; ECL UFR70, AF1 @ 4 μg/mL): 4 µg/mL
- MIC ATB in combination ([2]; ECL UFR84, AF1 @ 4 μg/mL): 64 µg/mL
- MIC ATB in combination ([2]; ECL UFR85, AF1 @ 4 μg/mL): 8 µg/mL
- MIC ATB in combination ([2]; ECL UFR194, AF1 @ 4 μg/mL): 2 µg/mL
- MIC ATB in combination ([2]; ECL UFR200, AF1 @ 4 μg/mL): 2 µg/mL
- MIC ATB in combination ([2]; strain ECL UFR195, antibacterial combined with AF1 @ 4 μg/mL): 4 µg/mL
- MIC ATB in combination ([2]; strain ECL UFR196, antibacterial combined with AF1 @ 4 μg/mL): 16 µg/mL
- MIC ATB in combination ([2]; strain ECL UFR197, antibacterial combined with AF1 @ 4 μg/mL): 8 µg/mL
- MIC ATB in combination ([2]; strain ECL UFR198, antibacterial combined with AF1 @ 4 μg/mL): 32 µg/mL
- MIC ATB in combination ([3]; ECO 4133): <=0.25 μg/mL
- MIC ATB in combination ([3]; ECO 5302): <=0.25 μg/mL
- MIC ATB in combination ([3]; ECO 131119): <=0.25 μg/mL
- MIC ATB in combination ([3]; ECO 180070): <=0.25 μg/mL
- MIC ATB in combination ([3]; ECO 190314): <=0.25 μg/mL
- MIC ATB in combination ([3]; ECO 190317): <=0.25 μg/mL
- MIC ATB in combination ([3]; ECO 190457): <=0.25 μg/mL
- MIC ATB in combination ([3]; ECO 190549): <=0.25 μg/mL
- MIC ATB in combination ([3]; ECO 200159): <=0.25 μg/mL
- MIC ATB in combination ([3]; ECO 200259): <=0.25 μg/mL
- MIC ATB in combination ([3]; ECO 200344): <=0.25 μg/mL
- MIC ATB in combination ([3]; ECO 260096): <=0.25 μg/mL
- MIC ATB in combination ([3]; ECO 260304): <=0.25 μg/mL
- MIC ATB in combination ([3]; ECO 260508): <=0.25 μg/mL
- MIC ATB in combination ([3]; ECO RGN238): <=0.25 μg/mL
- MIC ATB in combination ([3]; ECO UFR15): <=0.25 μg/mL
- MIC ATB in combination ([3]; ECO UFR16): 1 µg/mL
- MIC ATB in combination ([3]; ECO UFR18): 4 µg/mL
- MIC ATB in combination ([3]; ECO UFR19): 2 µg/mL
- MIC ATB in combination ([3]; ECO UFR20): 16 µg/mL
- MIC ATB in combination ([3]; ECO UFR61O): 0.25 µg/mL
- MIC ATB in combination ([3]; ECO UFR62): 0.5 µg/mL
- MIC ATB in combination ([3]; ECO UFR74): 1 µg/mL
- MIC ATB in combination ([3]; ECO UFR86): 1 µg/mL
- MIC ATB in combination ([3]; ECO UFR174): <=0.25 μg/mL
- MIC ATB in combination ([3]; ECO UFR175): 0.5 µg/mL
- MIC ATB in combination ([3]; ECO UFR176): <=0.25 μg/mL
- MIC ATB in combination ([3]; ECO UFR184): 16 µg/mL
- MIC ATB in combination ([3]; ECO UFR186): 1 µg/mL
- MIC ATB in combination ([3]; ECO UFR187): 0.5 µg/mL
- MIC ATB in combination ([3]; ECO UFR189): <=0.25 μg/mL
- MIC ATB in combination ([3]; ECO UFR190): 0.5 µg/mL
- MIC ATB in combination ([3]; ECO UFR191): 1 µg/mL
- MIC ATB in combination ([3]; ECO UFR207): <=0.25 μg/mL
- MIC ATB in combination ([3]; ECO UFR209): <=0.25 μg/mL
- MIC ATB in combination ([3]; ECO UFR210): <=0.25 μg/mL
- MIC ATB in combination ([3]; ECO UFR211): <=0.25 μg/mL
- MIC ATB in combination ([3]; ECO UFR212): 32 µg/mL
- MIC ATB in combination ([3]; ECO UFR218): <=0.25 μg/mL
- MIC ATB in combination ([4]; EAE 49469): 16 µg/mL
- MIC ATB in combination ([4]; EAE 200261): 8 µg/mL
- MIC ATB in combination ([4]; EAE UFR199): 1 µg/mL
- MIC ATB in combination ([4]; EAE UFR201): <=0.25 μg/mL
- MIC ATB in combination ([4]; EAE UFR202): 4 µg/mL
- MIC ATB in combination ([4]; EAE UFR213): 4 µg/mL
- MIC ([4]; strain EAE 200261 (TEM-x, AmpC)): > 256 µg/mL
- MIC ([4]; strain EAE UFR199 (TEM-1b, SHV-12, KPC-2, OXA-9)): > 256 µg/mL

Reference: US20200017496A1 (priority 2017, published 2020)
